In patent US12679866B2, “Peptide, and cell fusion agent and pharmaceutical composition for cancer therapy containing said peptide” (priority 2019, dated 2026):
No end group written: not given here.

Tests used:
[1] = test system: RFL cells (rat lung fetal cells); experiment: Cell fusion activity in RFL cells; format: cell-based; details: peptide 1 μg/mL, cultured 24-36 hours, nuclear staining
Experimental: (§1) In this Example, the peptide 1 obtained in Example 1 was added to RFL cells (rat lung fetal cells) or LLC cells (Lewis lung carcinoma-derived cells), and the cell fusion activity of the peptide was examined.
(§2) RFL cells or LLC cells (2×10^6 cells) were suspended in 6 mL of RPMI-1640 medium (Wako, 189-02025) supplemented with 5% FBS (Biosera, Cat No. 015BS493) and 8×10^4 cells/0.25 mL were dispensed to each well of 24 well plate (Iwaki, 2820-024)), and cultured. The medium was removed, and a fresh medium (20 μL) and peptide 1 (1 μg/mL) were dispensed, and the cells were further cultured for 24-36 hours. After the culture was completed, the cells were fixed with methanol (Wako), and nuclear-stained with Gimza staining solution (Muto Kagaku 15003) for microscopic examination.

[2] = test system: LLC cells (Lewis lung carcinoma-derived cells); experiment: Cell fusion activity in LLC cells; format: cell-based; details: LLC (printed LCC) cells, peptide 1 μg/mL, cultured 24-36 hours, nuclear staining
Experimental: as §1, §2

[3] = test system: RFL cells (rat lung fetal cells); experiment: Cell fusion activity in RFL cells; format: cell-based; details: peptide 9 vs peptide 1, peptide 1 vs peptide 10
RM-4 cells [4] = experiment: Apoptosis induction in RM-4 cells (Caspase-3/7 and Annexin V, IncuCyte S3); format: cell-based, rat; details: 0.06 μg/mL peptide
Experimental: In this Example, the apoptosis ability of peptide 1 was examined using the RM-4 cells. An activity of Caspase-3/7 and an activity of AnnexinV (red fluorescence) which are indications of apoptosis, was measured using IncuCyte S3 live cell analysis system (Essen BioScience).
The activity of Caspase-3/7 activity is measured using an inert non-fluorescent (DEVD) substrate that can penetrate the cell membrane. An activated Caspase-3/7 cleaves the substrate, and thereby a DNA-bound green fluorescent label is released. The activity of Caspase-3/7 is measured by the intensity of green fluorescence.
The activity of Annexin V is measured using a photostable CF dye. CF dye emits a red fluorescent signal when bound to phosphatidylserine (PS). The activity of Annexin V is measured by the red fluorescent signal.
RM-4 cells were seeded on 96-well plates and 0.06 μg/mL of peptide 1 was added thereto. Caspase-3/7 Green Reagent (Unit size: 20 ul, 5 mM/vial) was diluted 500-fold with Ham's F-12K and added thereto. Then, Annexin V Red Reagent (Unit size: 100 tests/vial) was diluted 100-fold with Ham's F-12K and added thereto. They were measured using the IncuCyte S3 live cell analysis system, by continuously scanning every hour for 3 days with an objective lens of magnification of 10 times and 4 fields of view. As a control, RM-4 cells which were not treated with peptide 1, were used.

RM-4 cells [5] = experiment: Cell fusion activity in RM-4 cells; format: cell-based, rat; details: peptide 1 μg/mL, cultured 24-36 hours, nuclear staining
Experimental: as §2
In this Example, the cell fusion activity of the peptide 6 was examined. The procedure of Example 2 was repeated, except that the peptide 6 was used instead of the peptide 1, and the RM-4 cells only used instead of the LCC cells. In connection with this, RM-4 cells are cancer cells in which RFL cells were infected with Moloney murine leukemia virus and selected.

[6] = test system: A549 cells (human alveolar epithelial adenocarcinoma cells); experiment: Anticancer effect on A549 cells transplanted into nude mice; format: in vivo; details: 25 mg/kg intravenous
Experimental: In this example, the anticancer effect of peptide 6 on A549 cells (human alveolar epithelial adenocarcinoma cells) was examined in vivo.
CAnN.Cg-Foxn1nu/CrlCrlj nude mice were divided into groups of 6 animals each. A549 cells suspended in PBS at a concentration of 4×10^6 cells/mL were transplanted subcutaneously to the right ventral part thereof. The peptide 6 was administered intravenously from the tail vein at a dose of 25 mg/kg (peptide 6 group) on 14, 17, 21, 24, 28, 31, 35, and 38 days later after tumor transplantation. Control group was administered PBS only.
Tumor volume and body weight were measured every 3 or 4 days, and the tumor was resected on 38 days after tumor transplantation (on […] after the start of peptide administration). The tumor volume was calculated from the formula “estimated tumor volume=(minor axis)^2×(major axis)÷2” by measuring the minor axis and major axis with a caliper. […] 5 mice were evaluated.

Substance | cell fusion activity (fusion cells with multiple nuclei, microscopy) [1] | further results
CH3-Pro-Ile-Val-Ser-Gln-Thr-Thr-Ala-Leu-Ala (Me-PIVSQTTALA) [peptide 8] | cells are fused and fusion cells with multiple nuclei were found | cell fusion activity (fusion cells with multiple nuclei, microscopy) [2]: cells are fused and fusion cells with multiple nuclei were found
CH3-Pro-Leu-Val-Ser-Thr-Gln-Thr-Ala-Leu-Ala (Me-PLVSTQTALA) [peptide 2] | cells are fused and fusion cells with multiple nuclei were found | –
CH3-Pro-Leu-Val-Ser-Gln-Thr-Thr-Ala-Leu-Ala (Me-PLVSQTTALA) [peptide 4] | cells are fused and fusion cells with multiple nuclei were found | –
CH3-Pro-Ile-Val-Ser-Gln-Thr-Thr-Ala-Ile-Ala (Me-PIVSQTTAIA) [peptide 7] | cells are fused and fusion cells with multiple nuclei were found | –
CH3-Pro-Leu-Val-Ser-Thr-Gln-Thr-Ala-Ile-Ala-Thr-Ala (Me-PLVSTQTAIATA) [peptide 9] | cells are fused and fusion cells with multiple nuclei were found | cell fusion activity compared with another peptide [3]: superior to peptide 1
CH3-Pro-Leu-Val-Ser-Gln-Thr-Thr-Ala-Ile-Ala (Me-PLVSQTTAIA) [peptide 3] | cells are fused and fusion cells with multiple nuclei were found | –
CH3-Pro-Leu-Val-Ser-Thr-Gln-Thr-Ala-Ile-Ala (Me-PLVSTQTAIA) [peptide 1] | cells are fused and fusion cells with multiple nuclei were found | cell fusion activity compared with another peptide [3]: seemed to be stronger; apoptosis induction (fluorescence micrographs) (RM-4 cells [4]; after 18 and 78 hours): induced apoptosis in RM-4 cells; activity of Annexin V (red fluorescence) (RM-4 cells [4]; scanned every hour for 3 days): increased sharply between 10 and 20 hours, and then gradually increased; activity of Caspase-3/7 (green fluorescence) (RM-4 cells [4]; scanned every hour for 3 days): increased sharply between 10 and 20 hours, and then gradually increased; cell fusion activity (fusion cells with multiple nuclei, microscopy) [2]: cells are fused and fusion cells with multiple nuclei were found
PLVSTQTAIA [peptide 10] | cells are fused and fusion cells with multiple nuclei were found | –
CH3-Pro-Ile-Val-Ser-Thr-Gln-Thr-Ala-Ile-Ala (Me-PIVSTQTAIA) [peptide 5] | cells are fused and fusion cells with multiple nuclei were found | –
CH3-Pro-Ile-Val-Ser-Thr-Gln-Thr-Ala-Leu-Ala (Me-PIVSTQTALA) [peptide 6] | cells are fused and fusion cells with multiple nuclei were found | cell fusion activity (fusion cells with multiple nuclei, microscopy) (RM-4 cells [5]): cells are fused and fusion cells with multiple nuclei were found; tumor volume ([6]; A549 subcutaneous in nude mice, 8 administrations, 28 days): tumor volumes were reduced; histology of HE-stained excised tumor ([6]; A549 tumor resected 38 days after transplantation): the inside of the tumor was necrotic
